Measurements as given in patent US7034018B2, “Substituted pyrrole mannich bases to combat pain and allergic reactions” (Gruenenthal GmbH, priority 1999, dated 2006).

These compounds were tested against T1, 5-HT transporter (Rattus norvegicus, UniProt P31652) (assay: Inhibition of serotonin re-uptake (5-HT uptake inhibition) in rat brain synaptosomes). Settings: synaptosomes (P2 fraction) from pons and medulla oblongata region of male rat brain; means from 2 parallel experiments.
T1 construct: these vesicular particles were isolated from the pons and medulla oblongata region of the male rat brain; from tissue; host or cells: rat brain synaptosomes (P2 fraction) from the pons and medulla oblongata of male rats
Assay type: biochemical
Parameters: concentration or dose not given beside the values
Description: The investigations of the inhibition of serotonin re-uptake (5-HT uptake inhibition) were carried out by the methods such as are described in M. Ch. Frink, H.-H.-Hennies, W. Englberger, M. Haurand and B. Wilffert, Arzneim.-Forsch./Drug. Res. 46 (III), 11, 1996, pages 1029-1036. They are introduced herewith as reference and thus form part of the disclosure.
To carry out these investigations, synaptosomes were freshly isolated from rat brain areas. In each case the so-called “P2” fraction was used, which was prepared according to the instructions in E. G. Gray and V. P. Whittaker, J. Anat. 76, pages 79-88, 1962. This literature is introduced herewith as reference and thus forms part of the disclosure. For determination of the 5-HT uptake, these vesicular particles were isolated from the pons and medulla oblongata region of the male rat brain.
The following characteristic data were determined for the 5-HT transporter: • 5-HT uptake: Km=0.084±0.011 μM • Vmax: 38.13±4.52 pmol/min/mg protein. The results of the investigations are in each case stated as means from 2 parallel experiments.

T1 sequence (P31652 whole entry): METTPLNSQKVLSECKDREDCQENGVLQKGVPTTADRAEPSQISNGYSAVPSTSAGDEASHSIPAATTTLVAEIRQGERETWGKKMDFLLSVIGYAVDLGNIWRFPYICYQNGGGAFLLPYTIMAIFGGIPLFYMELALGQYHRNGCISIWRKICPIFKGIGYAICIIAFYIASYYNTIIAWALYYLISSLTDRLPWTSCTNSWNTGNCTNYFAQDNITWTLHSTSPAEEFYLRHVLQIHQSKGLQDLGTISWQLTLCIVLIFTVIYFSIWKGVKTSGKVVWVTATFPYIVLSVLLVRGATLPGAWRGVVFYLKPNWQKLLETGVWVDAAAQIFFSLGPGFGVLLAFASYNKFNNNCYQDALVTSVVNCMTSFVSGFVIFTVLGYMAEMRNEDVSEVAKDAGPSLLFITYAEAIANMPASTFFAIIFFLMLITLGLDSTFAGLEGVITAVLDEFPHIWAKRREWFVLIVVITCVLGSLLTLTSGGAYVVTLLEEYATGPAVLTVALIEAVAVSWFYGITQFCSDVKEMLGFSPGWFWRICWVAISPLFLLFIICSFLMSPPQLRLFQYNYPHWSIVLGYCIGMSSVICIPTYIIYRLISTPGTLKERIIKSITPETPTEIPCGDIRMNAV

Point of comparison: `Fc1cccc(Cl)c1C(c1cccn1Cc1ccccn1)N1CCCC1` (centres unmarked) [Example 37, 2-{2-[(2-Chloro-6-fluoro-phenyl)-pyrrolidin-1-yl-methyl]-pyrrol-1-ylmethyl}-pyridine], “Inhibition of 5HT uptake in %” value 39%. Against it:
- Brc1ccc(C(c2cccn2-c2ccccc2)N2CCCC2)cc1 (centres unmarked) [Example 23, 2-[(4-Bromo-phenyl)-pyrrolidin-1-yl-methyl]-1-phenyl-1H-pyrrole] — higher, 57%
- Cc1cccc(C(c2cccn2CCCO)N2CCCCC2)c1 (centres unmarked) [Example 30, 3-[2-(Piperidin-1-yl-m-tolyl-methyl)-pyrrol-1-yl]-propan-1-ol] — higher, 43%
- Cn1cccc1C(c1ccc(F)cc1)N1CCCCC1 (centres unmarked) [Example 32, 1-[(4-Fluoro-phenyl)-(1-methyl-1H-pyrrol-2-yl)-methyl]-piperidine] — higher, 42%
- N#Cc1ccc(C(c2cccn2Cc2ccccn2)N2CCCC2)cc1 (centres unmarked) [Example 38, 4-[(1-Pyridin-2-ylmethyl-1H-pyrrol-2-yl)-pyrrolidin-1-yl-methyl]-benzonitrile] — higher, 45%
- NC(=S)c1ccccc1-n1cccc1C(c1cc(Br)ccc1F)N1CCCC1 (centres unmarked) [Example 41, 2-{2-[(5-Bromo-2-fluoro-phenyl)-pyrrolidin-1-yl-methyl]-pyrrol-1-yl}-thiobenzamide] — higher, 41%
- OCCCn1cccc1C(c1ccc(F)cc1)N1CCCCC1 (centres unmarked) [Example 31, 3-{2-[(4-Fluoro-phenyl)-piperidin-1-yl-methyl]-pyrrol-1-yl}-propan-1-ol] — higher, 50%
- Cc1cccc(C(c2cccn2-c2ccccc2N)N2CCCCC2)c1 (centres unmarked) [Example 24, 2-[2-(Piperidin-1-yl-m-tolyl-methyl)-pyrrol-1-yl]-phenylamine] — higher, 59%
- NC(=S)c1ccccc1-n1cccc1C(c1cccc(Oc2ccccc2)c1)N1CCCCC1 (centres unmarked) [Example 27, 2-{2-[(3-Phenoxy-phenyl)-piperidin-1-yl-methyl]-pyrrol-1-yl}-thiobenzamide] — higher, 44%
- CC(C)(C)c1ccc(C(c2cccn2C(C)(C)C)N2CCCC2)cc1 (centres unmarked) [Example 42, 1-tert-Butyl-2-[(4-tert-butyl-phenyl)-pyrrolidin-1-yl-methyl]-1H-pyrrole] — higher, 53%
- Fc1cc(Br)ccc1C(c1cccn1Cc1ccccn1)N1CCCC1 (centres unmarked) [Example 25, 2-{2-[(4-Bromo-2-fluoro-phenyl)-pyrrolidin-1-yl-methyl]-pyrrol-1-ylmethyl}-pyridine] — higher, 52%
- Nc1ccccc1-n1cccc1C(c1c(F)cccc1Cl)N1CCCC1 (centres unmarked) [Example 34, 2-{2-[(2-Chloro-6-fluoro-phenyl)-pyrrolidin-1-yl-methyl]-pyrrol-1-yl}-phenylamine] — the same, 39%
- Fc1ccc(C(c2cccn2CCCl)N2CCCCC2)cc1 (centres unmarked) [Example 28, 1-[[1-(2-Chloro-ethyl)-1H-pyrrol-2-yl]-(4-fluoro-phenyl)-methyl]-piperidine] — higher, 40%
- O=C(O)c1ccccc1-n1cccc1C(c1cc(Br)ccc1F)N1CCCC1 (centres unmarked) [Example 40, 2-{2-[(5-Bromo-2-fluoro-phenyl)-pyrrolidin-1-yl-methyl]-pyrrol-1-yl}-benzoic acid] — higher, 51%
- Fc1ccc(-n2cccc2C(c2ccc(F)c(Br)c2)N2CCCC2)cc1 (centres unmarked) [Example 39, 2-[(3-Bromo-4-fluoro-phenyl)-pyrrolidin-1-yl-methyl]-1-(4-fluoro-phenyl)-1H-pyrrole] — lower, 37%
- OCCn1cccc1C(c1cccc(Oc2ccccc2)c1)N1CCCCC1 (centres unmarked) [Example 29, 2-{2-[(3-Phenoxy-phenyl)-piperidin-1-yl-methyl]-pyrrol-1-yl}-ethanol] — higher, 48%
- Fc1ccc(C(c2cccn2Cc2ccccn2)N2CCCC2)cc1Br (centres unmarked) [Example 36, 2-{2-[(3-Bromo-4-fluoro-phenyl)-pyrrolidin-1-yl-methyl]-pyrrol-1-ylmethyl}-pyridine] — higher, 63%
- Cn1cccc1C(c1ccc(C(F)(F)F)cc1)N1CCCCC1 (centres unmarked) [Example 33, 1-[(1-Methyl-1H-pyrrol-2-yl)-(4-trifluoromethyl-phenyl)-methyl]-piperidine] — higher, 55%
- N#CCCn1cccc1C(c1ccccc1F)N1CCCCC1 (centres unmarked) [Example 22, 3-{2-[(2-Fluoro-phenyl)-piperidin-1-yl-methyl]-pyrrol-1-yl}-propionitrile] — higher, 83%
- Brc1cccc(C(c2cccn2Cc2ccccn2)N2CCCC2)c1 (centres unmarked) [Example 35, 2-{2-[(3-Bromo-phenyl)-pyrrolidin-1-yl-methyl]-pyrrol-1-ylmethyl}-pyridine] — higher, 43%
- c1ccc(Oc2cccc(C(c3cccn3Cc3ccccn3)N3CCCCC3)c2)cc1 (centres unmarked) [Example 26, 2-{2-[(3-Phenoxy-phenyl)-piperidin-1-yl-methyl]-pyrrol-1-ylmethyl}-pyridine] — higher, 71%

These compounds were tested on phenylquinone-induced writhing in mice (assay: Analgesia test in the phenylquinone-induced writhing test in mice). Settings: male NMRI mice; standard dose of 10 mg/kg, intravenous, 10 minutes before phenylquinone i.p.
Assay type: in vivo
Description: The in-depth investigation for analgesic activity was carried out in the phenylquinone-induced writhing in mice (modified by I. C. Hendershot, J. Forsaith, J. Pharmacol. Exp. Ther. 125, 237-240 (1959)). Male NMRI mice weighing 25-30 g were used for this. Groups of 10 animals per substance dose received 0.3 ml/mouse of a 0.02% aqueous solution of phenylquinone (phenylbenzoquinone, Sigma, Deisenhofen; preparation of the solution with the addition of 5% ethanol and storage in a water bath at 45° C.) administered intraperitoneally 10 minutes after intravenous administration of the test substances. The animals were placed individually in observation cages. The number of pain-induced stretching movements (so-called writhing reactions=straightening of the body with stretching of the hind extremities) were counted by means of a push-button counter for 5-20 minutes after the administration of phenylquinone. Animals which received only physiological saline solution were also run as a control.
The substances were tested in the standard dose of 10 mg/kg. The inhibition of the writhing reactions by a substance was calculated according to the following equation: [formula]

Point of comparison: `Cn1cccc1C(c1ccccc1)N1CCCC1` (centres unmarked) [Example 15, 1-Methyl-2-(phenylpyrrolidin-1-yl-methyl)-1H-pyrrole], “Inhibition of the Writhing reaction in %” value 87%. Against it:
- CN(C)C(c1ccccc1)c1cccn1C (centres unmarked) [Example 16, Dimethyl-[(1-methyl-1H-pyrrol-2-yl)-phenylmethyl]-amine] — lower, 17%
